Results taken from patent US11925643B2, “Toll-like receptor 4 (TLR4) inhibitors and use thereof” (MOR RESEARCH APPLICATIONS LTD., priority 2018, dated 2024).
No end group written: not given here.

Columns and labels:
primary cardiomyocytes [1] = experiment: CK and LDH release by primary cardiomyocytes under hypoxia (MI like); format: cell-based, Rat; settings: 20 μM
Description: (§1) Rat hearts (1-2 days old) were removed under sterile conditions and washed three times in phosphate-buffered saline (PBS) to remove excess blood cells. The hearts were minced and then gently agitated in RBD (a solution of proteolytic enzymes (Biological Institute, Ness-Ziona, Israel) prepared from fig tree extract, and diluted 1:100 in Ca^2+- and Mg^2+-free PBS) for a few cycles of 10 min each. Dulbecco's modified Eagle's medium (Biological Industries, Kibbutz Beit Haemek, Israel) containing 10% horse serum was added to supernatant suspensions containing the dissociated cells. The mixture was centrifuged at 1400 rpm for 4 min. The supernatant phase was discarded, and the cells were re-suspended. The cell suspension was diluted to 1.0×10^6 cells/ml, unless stated otherwise, and 1.5 ml of the suspension was placed in 35-mm plastic culture dishes collagen- or gelatin-coated, or on coated cover glasses. The cultures were incubated in a humidified atmosphere of 5% CO2 and 95% air at 37° C.
Using a vacuum pump, the oxygen rich air was evacuated from an incubator containing plates with cell cultures, and a 100% Argon atmosphere was let in, while maintaining a temperature of 37° C. The cell cultures were washed with PBS twice to remove glucose from the medium. Hypoxic treated cells were cultures in PBS without glucose. These cells lasted for 180 minutes.
(§2) Primary cardiomyocytes which were obtained by method described above, were treated with exemplary decoy peptides described herein. After 30 minutes of incubation, sepsis like (LPS treatment for 6 hours), or myocardial infarction (MI) like (hypoxia for 3 hours) conditions were imposed to measure the release of CK and LDH to the medium and determine the potential cardioprotective effect of the tested decoy peptides. Cytotoxicity and level of cell damage were assessed by spectrophotometric measurement of lactate dehydrogenase (LDH) and creatine kinase (CK) activities (at 30° C.). Results are presented as CK and LDH release in arbitrary units (a.u.)
(§3) Activity of LDH and CK was determined in the cell-culture medium (25 μl) transferred into 96-well plates, using commercial L-LDH/CK kits (such as those manufactured, e.g., by Sigma-Aldrich, BioVision™ or Thermo Fisher Scientific®).
(§4) Primary cardiomyocytes were treated with peptides and peptidomimetics of SEQ ID NOs:1-7 provided at concentrations ranging from 1 μM to 20 μM. Following 30 minutes of incubation, sepsis like (LPS treatment for 6 hours) or MI like (hypoxia for 3 hours) conditions were induced to determine the potential cardioprotective effect of the tested compounds. Creatine kinase (CK) and lactate dehydrogenase (LDH) activity were assayed to determine the level of cellular damage and cell protection effect. The experimental procedure is described in Materials and Methods above. Results are presented as CK and LDH release in arbitrary units (a.u.).

primary cardiomyocytes [2] = experiment: CK and LDH release by primary cardiomyocytes under LPS treatment (sepsis like); format: cell-based, Rat; settings: LPS treatment; 20 μM
Description: as §1, §2, §3, §4

TLR4 mRNA = TLR4 mRNA level by RT-qPCR in hypoxic cardiomyocytes; format: cell-based; settings: hypoxic conditions
Description: (§5) Real-time RT-PCR experiments were performed in duplicates on an ABI 7900 instrument (Applied Biosystems™) using Taqman™ Master Mix (Applied Biosystems™). The average threshold cycles (Ct) of the duplicates were used to calculate the relative expression levels of the following genes: TLR4 (Applied Biosystems™ assay primer ID: Mm00569848_m1 Tlr4), TLR2 (assay primer ID: Mm01769726_m1 Tlr2), TNF-α (assay primer ID: Mm00443260_g1 Tnf) and IL-1β (assay primer ID: Mm00434228_m1 II1b) in vitro and in vivo following hypoxia or ischemia, respectively. The reference gene was TBP and the primer used was derived from mouse TATA-box binding protein (Applied Biosystems™ assay primer ID: Mm00446973_m1 Tbp). Amounts of TLR2, TLR4, TNF-α and IL-1β mRNAs in each sample were calculated relative to TBP mRNA, based on the corresponding Cts, as Relative Quantity (RQ) values, and normalized taking as 1 a randomly selected sample of the control group (TBP mRNA). Calculation were performed using the Applied Biosystems Analysis™ software (StepOnePlus V2.2.2). All mRNA scores are presented in arbitrary units.
Next, peptidomimetics of SEQ ID NOs:1 and 2 were tested for their ability to affect the expression of TLR4. The level of TLR4 mRNA was measured by real-time reverse transcriptase polymerase chain reaction (RT-qPCR) method as described in Materials and Methods. The possible effect of both compounds on expression levels of TLR2 mRNA was used as a negative control.

IL-1β mRNA = IL-1β mRNA level by RT-qPCR in hypoxic cardiomyocytes; format: cell-based; settings: hypoxic conditions
Description: as §5, with “Calculation were performed using the Applied Biosystems Analysis™ software (StepOnePlus V2.2.2). All mRNA scores are presented in arbitrary units.” left out
Decoy peptides represented by compounds PM1-PM10 were tested in vitro for their ability to decrease the level of CK and LDH released by stressed cardiomyocytes following exposure to LPS or hypoxic stimulation, and further evaluated for their ability to affect the level of IL-1β and TLR4 mRNA, and expression of IκB and TLR4 proteins, according to the protocols described in Materials and Methods and in Example 5 herein above.

TLR4 signaling = settings: primary murine macrophages; cited from earlier work
[3] = system: TLR4-driven inflammatory response; settings: mice, cited from earlier work

Row | Compound | CK release (primary cardiomyocytes [1]) | LDH release (primary cardiomyocytes [1]) | CK release (primary cardiomyocytes [2]) | LDH release (primary cardiomyocytes [2]) | inhibition of TLR4 mRNA production (TLR4 mRNA) | inhibition of IL-1β mRNA production (IL-1β mRNA) | TLR4 signaling (TLR4 signaling) | LPS-induced activation of MyD88-dependent and TRIF-dependent cytokines and MAPKs [3] | survival ([3]; lethal LPS dose) | circulating cytokine levels ([3]; sublethal dose of LPS)
1 | Cc1cn(Cc2ccccc2)c(=O)nc1NCCC(C)C [PM2, 1-benzyl-4-(isopentylamino)-5-methylpyrimidin-2(1H)-one] | significant reduction | significant reduction | no significant effect | no significant effect | 2 fold | 1.3 fold | – | – | – | –
2 | IVFAEMPCG (Ac-IVFAEMPCG) [prior art decoy peptide derived from the TRAM TIR domain (Piao et al., 2013); used N-acetylated as positive control] | – | – | – | – | – | – | inhibited | inhibited | dramatically improving | significantly diminishing
